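Interpolation was linear, between the two tested concentrations surrounding the appropriate level; five concentrations were tested over 48 hours in 96-well plates. GI50 is the concentration that inhibits growth by half. TGI: concentration producing complete growth inhibition.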
Legend:
Assay in all cases: NCI-60 cell line screen, 48 h
786-0 renal = system: 786-0 renal
ACHN renal = system: ACHN renal
DU-145 prostate = system: DU-145 prostate
NCI-H460 lung = system: NCI-H460 lung
OVCAR-3 ovarian = system: OVCAR-3 ovarian
SF-539 CNS = system: SF-539 CNS
SN12C renal = system: SN12C renal
SNB-19 CNS = system: SNB-19 CNS
TK-10 renal = system: TK-10 renal
UACC-62 melanoma = system: UACC-62 melanoma

SMILES | GI50 (786-0 renal) | TGI (786-0 renal) | GI50 (ACHN renal) | TGI (ACHN renal) | GI50 (DU-145 prostate) | TGI (DU-145 prostate) | GI50 (NCI-H460 lung) | TGI (NCI-H460 lung) | GI50 (OVCAR-3 ovarian) | TGI (OVCAR-3 ovarian) | GI50 (SF-539 CNS) | TGI (SF-539 CNS) | GI50 (SN12C renal) | TGI (SN12C renal) | GI50 (SNB-19 CNS) | TGI (SNB-19 CNS) | GI50 (TK-10 renal) | TGI (TK-10 renal) | GI50 (UACC-62 melanoma) | TGI (UACC-62 melanoma)
CCOC(=O)Cn1c(-c2nonc2NC(=O)c2ccccc2F)nc2ccccc21 | 2.58 µM | > 100 µM | 5.05 µM | > 100 µM | 4.96 µM | > 100 µM | 0.579 µM | > 100 µM | 7.07 µM | > 100 µM | 1.67 µM | > 100 µM | 26.2 µM | > 100 µM | 5.58 µM | > 100 µM | 19.2 µM | > 82.7 µM | 5.86 µM | > 100 µM
O=C1/C(=C/c2ccc(Cl)cc2)CCC1CN1CCOCC1 (stereo not given) |  | 6.2 µM |  | 24.8 µM |  | 16.1 µM |  | 39.2 µM |  | 15 µM |  | 34.6 µM |  | 8.9 µM |  | 30.8 µM |  | 18.3 µM |  | 15.8 µM
COC1C(CO)OC(n2c3c(Cl)cccc3c3c4c(c5c6cccc(Cl)c6[nH]c5c32)C(=O)NC4=O)C(O)C1O (stereo not given) |  | 2.32 µM |  | 1.47 µM |  | 3.29 µM |  | 0.479 µM |  | 6.67 µM |  | 0.489 µM |  | > 29.2 µM |  | > 100 µM |  | 19.7 µM |  | 0.257 µM
